Reference: ChEMBL document CHEMBL4304800, “C4-Phenylthio β-lactams: Effect of the chirality of the β-lactam ring on antimicrobial activity” (2019)
Converted amounts (≈) assume the structure as drawn. The source made the active and inactive calls. No cut-off for these calls is given here.

Legend:
[1] = tested on: Mycobacterium tuberculosis; assay: (§1) Bactericidal activity against serine beta-lactamase producing Mycobacterium tuberculosis H37Rv assessed as reduction in microbial cell number at MIC preincubated in middlebrook 7H9 medium for 7 days and further incubated in middlebrook 7H11/BSA supplemented with OADC for 3 weeks by serial dilution based colony counting method; assay type: functional, organism-based
[2] = tested on: Mycobacterium tuberculosis; assay: Antitubercular activity against serine beta-lactamase producing Mycobacterium tuberculosis H37Rv after 14 days in presence of GAST/Fe medium by eleven fold serial dilution method; assay type: functional; details: 336 h
[3] = tested on: Mycobacterium tuberculosis; assay: Bactericidal activity against non-replicating persistant form of Mycobacterium tuberculosis H37Rv assessed as minimum anaerobicidal concentration by measuring log reduction in viable microbe number at 200 ug/ml preincubated for 7 days in anaerobic condition post adaptation to decreasing oxygen levels and further incubated in middlebrook 7H11/BSA supplemented with ODAC for 4 to 5 weeks by serial dilution based assay; assay type: functional
[4] = tested on: Mycobacterium tuberculosis; assay: as §1, with “induction of” for “reduction in”, “kill” for “cell number”; assay type: functional
[5] = tested on: Mycobacterium tuberculosis; assay: Antitubercular activity against serine beta-lactamase producing Mycobacterium tuberculosis H37Rv after 14 days in presence of middlebrook 7H9/BSA medium by eleven fold serial dilution method; assay type: functional; details: 336 h
Moraxella catarrhalis = assay: Bactericidal activity against serine beta-lactamase producing Moraxella catarrhalis incubated in MH broth for 24 to 48 hrs by microbroth dilution method; assay type: functional
[6] = tested on: Mycobacterium tuberculosis; assay: Antitubercular activity against serine beta-lactamase producing Mycobacterium tuberculosis H37Rv after 14 days in presence of Glu/Cas medium by eleven fold serial dilution method; assay type: functional; details: 336 h
[7] = tested on: Mycobacterium tuberculosis; assay: Antitubercular activity against serine beta-lactamase producing Mycobacterium tuberculosis H37Rv after 14 days in presence of Chol/BSA medium by eleven fold serial dilution method; assay type: functional; details: 336 h
[8] = tested on: Mycobacterium tuberculosis; assay: Antitubercular activity against serine beta-lactamase producing Mycobacterium tuberculosis H37Rv after 14 days in presence of DPCC/Cas medium by eleven fold serial dilution method; assay type: functional; details: 336 h
[9] = tested on: Mycobacterium tuberculosis; assay: Antitubercular activity against serine beta-lactamase producing Mycobacterium tuberculosis H37Rv after 14 days in presence of Glu/BSA medium by eleven fold serial dilution method; assay type: functional; details: 336 h
[10] = tested on: Mycobacterium tuberculosis; assay: Antitubercular activity against serine beta-lactamase producing Mycobacterium tuberculosis H37Rv after 14 days in presence of DPPC/BSA medium by eleven fold serial dilution method; assay type: functional; details: 336 h
[11] = tested on: Mycobacterium tuberculosis; assay: Antitubercular activity against clinical drug sensitive Mycobacterium tuberculosis K14b00DS after 14 days in presence of middlebrook 7H9/BSA medium by eleven fold serial dilution method; assay type: functional; details: 336 h

SMILES | Activity [1] | MIC99 [2] | Activity [3] | LCK [4] | MIC99 [5] | MBC (Moraxella catarrhalis) | MIC (Moraxella catarrhalis) | MIC [6] | MIC [7] | MIC [8] | MIC [9] | MIC [10] | MIC [11]
C[C@@H](NC(=O)N1C(=O)C[C@H]1Sc1c(F)c(F)c(F)c(F)c1F)c1ccccc1 | Active | 0.3 µg/mL | 1 log10CFU/ml | <3 | > 100 µg/mL | 3.1 µg/mL (≈ 7.45 µM) | 3.1 µg/mL (≈ 7.45 µM) |  |  |  |  |  | 
O=C1CC(Sc2c(F)c(F)c(F)c(F)c2F)N1C(=O)NCc1ccccc1 (racemic) | Active |  |  | <3 | 12.5 µg/mL | 6.2 µg/mL (≈ 15.4 µM) |  | 1.5 µg/mL | 25 µg/mL | 0.78 µg/mL | 6.25 µg/mL | 25 µg/mL | 
O=C1CC(Sc2ccc(F)cc2Cl)N1C(=O)NCc1ccccc1 (racemic) |  | 0.3 µg/mL |  |  | 37.5 µg/mL | 12.5 µg/mL (≈ 34.3 µM) |  | 1.5 µg/mL | 18.8 µg/mL | 0.78 µg/mL | 25 µg/mL | 12.5 µg/mL | 
O=C1CC(Sc2ccc(C(F)(F)F)cc2)N1C(=O)NCc1ccccc1 (racemic) |  |  |  |  | 12.5 µg/mL |  | 1.6 µg/mL (≈ 4.21 µM) | 1.5 µg/mL | 25 µg/mL | 0.78 µg/mL | 25 µg/mL | 25 µg/mL | 25 µg/mL
C[C@@H](NC(=O)N1C(=O)C[C@@H]1Sc1c(F)c(F)c(F)c(F)c1F)c1ccccc1 | Active |  | 1 log10CFU/ml | <3 | > 100 µg/mL | 12.5 µg/mL (≈ 30 µM) | 12.5 µg/mL (≈ 30 µM) |  |  |  |  |  | 
O=C1CC(Sc2cccc(C(F)(F)F)c2)N1 (racemic) |  |  |  |  | 25 µg/mL | 1.5 µg/mL (≈ 6.07 µM) | 1.5 µg/mL (≈ 6.07 µM) | 12.5 µg/mL | 12.5 µg/mL | 0.78 µg/mL | 25 µg/mL | 12.5 µg/mL | 
